Results as given in article PMC13310753, “Discovery of actinomycin derivatives with improved selectivity against malaria parasites from a Streptomyces culture library” (The Journal of Antibiotics, 2026).
Read-outs that look alike come from different tables or passages of the source. Numbered stars: 1 amine (or outer) side, 2 acyl side, 3 side chain; on linkers, the order of the positions; unused ones are H or OH. Bridge positions count the residues as written; N and C are the ends. Square brackets hold non-standard residues; d marks the D form. Peptide text beside a SMILES is read from it. I, II: the chains in the order shown. Actinocin(1to9) = Cc1c2oc3c(C)ccc(C(=O)[*:2])c3nc-2c(C(=O)[*:1])c(N)c1=O; Actinocin(9to1) = Cc1c2oc3c(C)ccc(C(=O)[*:1])c3nc-2c(C(=O)[*:2])c(N)c1=O; Pro(4-oxo) = O=C1CN[C@H](C(=O)O)C1; Hyp = O=C(O)[CH]1C[CH](O)CN1; NMeV = CN[CH](C(=O)O)C(C)C; Sar = CNCC(=O)O

How the values were obtained:
[1] = Cytotoxicity assay (Alamar Blue), primary adult mouse brain cells; type: cell-based; details: AMB cells, two independent experiments in duplicate wells, read-out: CC50 (50% cytotoxic concentration)
Description: (§1) Malarial parasite cultures and AMB cells were previously described. The detailed experimental procedure is described in the Supplementary data. Antimalarial activity and cytotoxicity were evaluated at 50% inhibitory concentration (IC50) and 50% cytotoxic concentration (CC50), respectively. We here analyzed these activities on purified actinomycin X2 (1), actinomycin X0ß (2), and commercially available actinomycin D (3). The SI is calculated as CC50/IC50.
(§2) Blood stages of P. falciparum 3D7 cell lines were provided by Nagasaki University with support in part by NEKKEN Bio-Resource Center (NEKKEN BRC), Institute of Tropical Medicine, Nagasaki University as a part of National BioResource Project (NBRP), MEXT, Japan. Human erythrocytes used for parasite culture were obtained from the Japan Red Cross Society (Registration No. 28J0060). The 3D7 parasites were cultivated in O+ erythrocytes in 2% hematocrit in Roswell Park Memorial Institute (RPMI) 1640-based complete medium (CM) supplemented with 5% AB+ human serum (prepared from plasma), 0.25% AlbuMax I (Gibco, Waltham, MA), 12.5 µg/mL gentamycin, and […] hypoxanthine […]
Primary adult mouse brain (AMB) cells were isolated and established at the NEKKEN Bio-Resource Center, according to previously established methods (Ref. 2). Briefly, the primary cells, which were passaged several times to be adapted to in vitro conditions, were maintained in Minimum Essential Medium (MEM) (Wako Pure Chemicals Industrial Ltd, Osaka, Japan) supplemented with 10% fetal bovine serum (FBS), penicillin/streptomycin solution (100 units/mL penicillin G and […] streptomycin sulfate) (Wako Pure Chemicals Industrial Ltd) and incubated at 37°C and 5% CO2. For the cytotoxicity assay, primary cells that had completed three passages were used. […]
SYBR Green – I (Lonza, Rockland, ME) assay technique was used to detect the parasite DNA. […] The relative fluorescence units (RFU) per well were then determined at 485–515 nm (filter) for 0.1 sec per exposure using a multilabel plate reader (ARVO 1430; Perkin Elmer, Waltham, MA, USA). […]

P. falciparum strain 3D7 = experiment: microbe, parasite or virus in culture; type: cell-based, Plasmodium falciparum; details: for SI, selectivity index (CC50/IC50): CC50 in AMB cells / IC50 against 3D7; for IC50: Plasmodium falciparum, 3D7, 48 h, read-out: IC50 (50% inhibitory concentration), in vitro antimalarial activity; for antimalarial activity of purified components (in words): bioassay during purification using P. falciparum strains 3D7 and Dd2
Description: as §1, §2
Primary adult mouse brain (AMB) cells were isolated and established at the NEKKEN Bio-Resource Center, according to previously established methods (Ref. 2). Briefly, the primary cells, which were passaged several times to be adapted to in vitro conditions, were maintained in Minimum Essential Medium (MEM) (Wako Pure Chemicals Industrial Ltd, Osaka, Japan) supplemented with 10% fetal bovine serum (FBS), penicillin/streptomycin solution (100 units/mL penicillin G and […] streptomycin sulfate) (Wako Pure Chemicals Industrial Ltd) and incubated at 37°C and 5% CO2. For the cytotoxicity assay, primary cells that had completed three passages were used.
Antimalarial growth inhibition assays
The antimalarial growth inhibition assay to determine 50% inhibition concentration (IC50) of compounds was performed as described before, with a minor modification (Ref. 3).
Briefly, The P. falciparum cultures (0.75% parasitemia and 2% hematocrit) were seeded on a 96-well black plate with the clear bottom (Thermo Fisher Scientific, Rochester, NY) and […]
exposed to compounds serially diluted threefold over a concentration range of 2.5 µg/mL to 0.13 ng/mL at the final concentration. As a result of the dose-response assay, IC50 value, the concentration of drug required to reduce parasites by 50% (10(log(A/B) × (50 ‒ C)/(D ‒ C) + log(B)) was obtained, where A represents the lowest concentration at which the percentage inhibition was greater than 50%, B is the highest concentration value at which the percentage inhibition was less than 50%, C is the percentage inhibition value of the sample at concentration B, and D is the percentage inhibition value of the sample at concentration A.
The culture plates were kept at 37°C under mixed gas (5% O2, 5% CO2, and 90% N2) for 48 hrs. Each in vitro experiment was performed in duplicate wells and repeated twice. The parasite growth inhibition was obtained by dividing the test samples' parasitemia by the negative controls' average.
SYBR Green – I (Lonza, Rockland, ME) assay technique was used to detect the parasite DNA. The RBCs were lysed after 48 hrs of incubation by adding 100 µL of lysis buffer (20 mM Tris, 10 mM EDTA, 0.01% saponin (wt/vol), and 0.1% Triton X-100 (vol/vol), pH 7.5) and 1× final concentration of SYBR Green - I into each well. The plates were incubated at room temperature for 1 hr with gentle agitation. The relative fluorescence units (RFU) per well were then determined at 485–515 nm (filter) for 0.1 sec per exposure using a multilabel plate reader (ARVO 1430; Perkin Elmer, Waltham, MA, USA).
Cytotoxicity assay was performed to determine 50% cytotoxic concentration (CC50) as previously described with minor modification (Ref. 4). Briefly, AMB cells (1×10^4 cells) were seeded in a 96-well plate (black plate with a clear bottom) and incubated at 37°C in a CO2

Structure (SMILES)	CC50 at 48 h [1]	SI, selectivity index (CC50/IC50) (P. falciparum strain 3D7)	IC50 (P. falciparum strain 3D7)	CC50 ([1]; 48 hrs)	SI value relative to that of actinomycin D (P. falciparum strain 3D7)	IC50 (P. falciparum strain 3D7; P. falciparum 3D7, 48 hrs, two independent experiments in duplicate wells)	antimalarial activity of purified components (in words) (P. falciparum strain 3D7)	SI value relative to that of actinomycin D (P. falciparum strain 3D7; listed as 2)	SI value relative to that of actinomycin D (P. falciparum strain 3D7; listed as 1)
Cc1c2oc3c(C)ccc(C(=O)N[C@@H]4C(=O)N[C@H](C(C)C)C(=O)N5CCC[C@H]5C(=O)N(C)CC(=O)N(C)[C@@H](C(C)C)C(=O)O[C@@H]4C)c3nc-2c(C(=O)N[C@@H]2C(=O)N[C@H](C(C)C)C(=O)N3CCC[C@H]3C(=O)N(C)CC(=O)N(C)[C@@H](C(C)C)C(=O)O[C@@H]2C)c(N)c1=O [actinomycin D] (I: T[dV]P[Sar][NMeV] / II: T[dV]P[Sar][NMeV]; ester I:1-I:C, II:1-II:C; linker I:N-II:N via Actinocin(9to1))	6.71 nM	14.3	0.469 nM						
Cc1c2oc3c(C)ccc(C(=O)NC4C(=O)NC(C(C)C)C(=O)N5CCCC5C(=O)N(C)CC(=O)N(C)C(C(C)C)C(=O)OC4C)c3nc-2c(C(=O)NC2C(=O)NC(C(C)C)C(=O)N3CC(O)CC3C(=O)N(C)CC(=O)N(C)C(C(C)C)C(=O)OC2C)c(N)c1=O (centres unmarked) [actinomycin X0ß] (I: TV[Hyp][Sar][NMeV] / II: TVP[Sar][NMeV]; ester I:1-I:C, II:1-II:C; linker I:N-II:N via Actinocin(1to9); configuration not given here)		106		818 nM	seven	7.69 nM	significant antimalarial activity	7 fold	
Cc1c2oc3c(C)ccc(C(=O)N[C@@H]4C(=O)N[C@H](C(C)C)C(=O)N5CCC[C@H]5C(=O)N(C)CC(=O)N(C)[C@@H](C(C)C)C(=O)O[C@@H]4C)c3nc-2c(C(=O)N[C@@H]2C(=O)N[C@H](C(C)C)C(=O)N3CC(=O)C[C@H]3C(=O)N(C)CC(=O)N(C)[C@@H](C(C)C)C(=O)O[C@@H]2C)c(N)c1=O [actinomycin X2] (I: T[dV][Pro(4-oxo)][Sar][NMeV] / II: T[dV]P[Sar][NMeV]; ester I:1-I:C, II:1-II:C; linker I:N-II:N via Actinocin(1to9))	6.71 nM	27.9	0.241 nM				significant antimalarial activity		2 fold
